From publication PMC6222516 (Molecules : A Journal of Synthetic Chemistry and Natural …, 2018)

Legend:
[1] = target: T1, adenosine A3 receptor (Homo sapiens, UniProt P0DMS8); assay: Radioligand competition binding assay, adenosine A3 receptor ([3H]-NECA); set-up: PEI (potency efficiency index), ligand efficiency for A3 receptor: dose or concentration left out as unconfirmed; conditions: for PEI (potency efficiency index), ligand efficiency for A3 receptor: PEI = (inhibition, ratio) / (MW, kD); for inhibition at 10 µM: read-out: % Inhib. 10 μM A3
T1 sequence (P0DMS8 1-318): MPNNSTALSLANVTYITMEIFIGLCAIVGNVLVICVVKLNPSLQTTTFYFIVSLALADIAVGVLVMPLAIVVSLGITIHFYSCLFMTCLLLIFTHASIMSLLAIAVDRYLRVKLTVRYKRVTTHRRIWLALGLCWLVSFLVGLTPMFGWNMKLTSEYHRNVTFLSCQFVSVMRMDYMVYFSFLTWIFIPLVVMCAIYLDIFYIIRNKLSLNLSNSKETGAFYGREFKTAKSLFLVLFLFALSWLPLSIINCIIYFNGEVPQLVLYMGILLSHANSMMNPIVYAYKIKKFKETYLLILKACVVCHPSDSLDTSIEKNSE
Method: (§1) The 10 mM stock solutions were prepared by dissolving 0.5–1 mg of the tested compounds in suitable volume of DMSO. Next, dilutions in binding buffer were prepared to obtain concentration ranges 10^−10–10^−5 or 10^−9–10^−4 depending upon the compound potency. The concentration-response curves of the standard controls were made.
Non-specific binding was determined in the presence of R-PIA 100 μM (Sigma P4532, St. Louis, MO, USA). The reaction mixture (Vt: 200 μL/well) was incubated at 25 °C for 180 min, after was filtered and washed six times with 250 μL wash buffer (Tris-HCl 50 mM pH = 7.4), before measuring in a microplate beta scintillation counter (Microbeta Trilux, PerkinElmer, Madrid, Spain).

[2] = target: adenosine A2A receptor (Homo sapiens, UniProt P29274); conditions: read-out: % Inhib. 10 μM A2A
Sequence of adenosine A2A receptor (P29274 whole entry): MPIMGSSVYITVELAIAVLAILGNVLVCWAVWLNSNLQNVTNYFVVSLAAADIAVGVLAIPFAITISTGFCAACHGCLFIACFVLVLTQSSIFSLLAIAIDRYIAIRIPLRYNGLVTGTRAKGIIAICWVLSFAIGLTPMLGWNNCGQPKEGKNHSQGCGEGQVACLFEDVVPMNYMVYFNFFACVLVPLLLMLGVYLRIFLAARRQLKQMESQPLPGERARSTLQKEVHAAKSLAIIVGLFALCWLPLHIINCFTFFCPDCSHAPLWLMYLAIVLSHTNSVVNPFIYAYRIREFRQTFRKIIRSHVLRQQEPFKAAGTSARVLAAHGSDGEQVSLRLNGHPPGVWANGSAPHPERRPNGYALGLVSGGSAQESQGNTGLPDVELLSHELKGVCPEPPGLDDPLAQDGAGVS
Method: As the standard control for the studied receptor-binding CGS15943, non-nucleoside agonist was applied. Non-specific binding was determined in the presence of NECA.
as §1
Non-specific binding was determined in the presence of NECA 50 μM (Sigma E2387, St. Louis, MO, USA).

Compound: CC[C@@H]1Cn2c(c3nc(-c4cc(Cl)cc(Cl)c4Cl)nc-3n(C)c2=O)N1.Cl [PSB 10 hydrochloride, reference compound]
- PEI (potency efficiency index), ligand efficiency for A3 receptor [1]: 2.51

Compound: Nc1ncnc2c1ncn2[C@H]1C[C@H](O)[C@@H](CO)O1 [2′-deoxyadenosine, reference compound]
- PEI (potency efficiency index), ligand efficiency for A3 receptor [1]: 0.20
- inhibition at 10 µM [1]: 5 ± 1%
- inhibition at 10 µM [2]: 3 ± 1%

Compound: Nc1ncnc2c1ncn2[C@@H]1O[C@H](CO)[C@@H](O)[C@H]1OCOCCCc1ccccc1 [Compound 12, 2′-O-(3-Phenylpropyleneoxymethyl)-adenosine]
- Ki [1]: 2.21 µM
- PEI (potency efficiency index), ligand efficiency for A3 receptor [1]: 1.61
- inhibition at 10 µM [1]: 67 ± 1%
- inhibition at 10 µM [2]: 2 ± 1%

Compound: OC[C@H]1O[C@@H](n2cnc3c(NCCCc4ccccc4)ncnc32)[C@H](O)[C@@H]1O [Compound 4]
- Ki [1]: 0.0075 µM
- PEI (potency efficiency index), ligand efficiency for A3 receptor [1]: 2.54
- inhibition at 10 µM [1]: 98 ± 1%
- inhibition at 10 µM [2]: 32 ± 1%
